Among the data in ChEMBL document CHEMBL1275370, “The binding of β-d-glucopyranosyl-thiosemicarbazone derivatives to glycogen phosphorylase: A new class of inhibitors” (Bioorg Med Chem, 2010) are IC50 values, retold here.

In general, IC50 refers to the concentration at which inhibition is half-maximal. Low readings indicate greater potency, high ones weaker potency.

The experiment has as its target T1, Glycogen phosphorylase, muscle form (Oryctolagus cuniculus, UniProt P00489).
T1 sequence (P00489 whole entry): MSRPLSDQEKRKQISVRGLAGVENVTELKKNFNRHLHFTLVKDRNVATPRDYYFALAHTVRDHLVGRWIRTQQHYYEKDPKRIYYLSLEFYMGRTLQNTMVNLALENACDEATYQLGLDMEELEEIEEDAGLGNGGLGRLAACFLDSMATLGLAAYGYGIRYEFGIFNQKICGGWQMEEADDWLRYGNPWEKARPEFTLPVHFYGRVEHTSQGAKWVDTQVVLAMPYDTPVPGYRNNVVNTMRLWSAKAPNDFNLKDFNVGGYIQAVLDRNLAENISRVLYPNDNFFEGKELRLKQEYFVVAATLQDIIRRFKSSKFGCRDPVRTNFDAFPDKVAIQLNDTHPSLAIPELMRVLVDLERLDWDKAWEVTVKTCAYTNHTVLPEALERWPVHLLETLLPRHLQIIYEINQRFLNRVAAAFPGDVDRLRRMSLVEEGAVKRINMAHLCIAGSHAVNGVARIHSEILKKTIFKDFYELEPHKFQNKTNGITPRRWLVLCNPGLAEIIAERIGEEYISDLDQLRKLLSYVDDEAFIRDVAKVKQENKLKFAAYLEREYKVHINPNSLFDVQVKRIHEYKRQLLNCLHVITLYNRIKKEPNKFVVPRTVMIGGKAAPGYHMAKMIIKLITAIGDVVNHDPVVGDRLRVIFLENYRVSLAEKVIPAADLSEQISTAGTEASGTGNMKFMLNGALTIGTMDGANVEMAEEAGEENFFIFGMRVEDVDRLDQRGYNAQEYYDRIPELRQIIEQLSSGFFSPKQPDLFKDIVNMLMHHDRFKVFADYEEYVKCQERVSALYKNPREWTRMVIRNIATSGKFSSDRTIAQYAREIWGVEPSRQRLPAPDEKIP

Structures are written as SMILES.

Description: Inhibition of rabbit skeletal muscle glycogen phosphorylase b

Turning to `CC[C@H]1O[C@@H](NC(=S)N/N=C/c2ccc(C)cc2)[C@H](O)[C@@H](O)[C@@H]1O`, half-maximal inhibition (IC50) required 192 µM. To `CC[C@H]1O[C@@H](NC(=S)N/N=C/c2ccc(O)cc2)[C@H](O)[C@@H](O)[C@@H]1O` belongs 340 µM; to `CC[C@H]1O[C@@H](NC(=S)N/N=C/c2ccccc2O)[C@H](O)[C@@H](O)[C@@H]1O`, 26.6 µM; to `CC[C@H]1O[C@@H](NC(=S)N/N=C/c2ccc(Br)cc2)[C@H](O)[C@@H](O)[C@@H]1O`, 93.2 µM. To `CC[C@H]1O[C@@H](NC(=S)N/N=C/c2cccc(O)c2)[C@H](O)[C@@H](O)[C@@H]1O` belongs 180 µM; to `CC[C@H]1O[C@@H](NC(=S)N/N=C/c2ccccc2Cl)[C@H](O)[C@@H](O)[C@@H]1O`, 370 µM; to `CC[C@H]1O[C@@H](NC(=S)N/N=C/c2ccc([N+](=O)[O-])cc2)[C@H](O)[C@@H](O)[C@@H]1O`, 25.7 µM. The same measure for `CC[C@H]1O[C@@H](NC(=S)N/N=C/c2ccccc2[N+](=O)[O-])[C@H](O)[C@@H](O)[C@@H]1O`: 484 µM; for `CC[C@H]1O[C@@H](NC(=S)N/N=C/c2cccc(Cl)c2)[C@H](O)[C@@H](O)[C@@H]1O`: 23.2 µM; for `CC[C@H]1O[C@@H](NC(=S)N/N=C/c2ccncc2)[C@H](O)[C@@H](O)[C@@H]1O`: 200 µM. `CC[C@H]1O[C@@H](NC(=S)N/N=C/c2ccc(OC)cc2)[C@H](O)[C@@H](O)[C@@H]1O` gave an IC50 of 406 µM. The same measure for `CC[C@H]1O[C@@H](NC(=S)N/N=C/c2ccc(C(F)(F)F)cc2)[C@H](O)[C@@H](O)[C@@H]1O`: 524 µM.
